Results as given in PMC6133161, “Thiazoles with cyclopropyl fragment as antifungal, anticonvulsant, and anti-Toxoplasma gondii agents: synthesis, toxicity evaluation, and molecular docking study” (Medicinal Chemistry Research, 2018).

Experiments:
[1] = tested on: PTZ-induced clonic seizures; assay: PTZ seizure test; assay type: in vivo, mouse; conditions: mice, ip, 60 min before PTZ 100 mg/kg sc; for latency time to first clonus / number of seizure episodes: vs vehicle
Experimental: For in vivo tests that assessed anticonvulsant properties of the test compounds 3a–3j adult male Albino Swiss (CD-1) mice weighing between 18 and 22 g were used. The animals were housed in groups of ten mice per cage at room temperature of 22 ± 2 °C, under light/dark (12:12) cycle. The animals had free access to food and tap water before the experiments. The ambient temperature of the experimental room and humidity (50 ± 10%) were kept consistent throughout all the tests. For behavioral experiments the animals were selected randomly. Each experimental group consisted of 4–8 animals/dose. The experiments were performed between 9 AM and 2 PM. Immediately after the in vivo assay the animals were euthanized by cervical dislocation. All procedures were approved by the Local Ethics Committee of the Jagiellonian University in Krakow (34/2018, 1.02.2018)) and the treatment of animals was in full accordance with ethical standards laid down in respective Polish and EU regulations (Directive No. 86/609/EEC). For in vivo tests the compounds 3a–3j were prepared in 1% Tween 80 solution (POCH, Poland) and they were administered by the intraperitoneal route. Control mice received 1% Tween 80. Pentylenetetrazole (PTZ), pilocarpine hydrochloride and scopolamine butylbromide were provided by Sigma Aldrich (Poland). For the tests they were prepared in 0.9% saline (Polfa Kutno, Poland). PTZ and pilocarpine were administered 60 min after the test compound or vehicle. To assess anticonvulsant properties of the test compounds anticonvulsant screening was conducted. Four assays were used: PTZ, maximal electroshock seizure (MES), 6-Hz and pilocarpine tests. In these assays the dose of 100 mg/kg was chosen as a starting dose. If it turned out to be effective, a lower dose (30 mg/kg) was also tested. The test was performed according to a method previously described (Sałat et al. [2005]). Clonic convulsions were induced by the subcutaneous (sc) administration of PTZ at a dose of 100 mg/kg. After PTZ injection, each mouse was immediately placed in a transparent Plexiglas cage (30 × 20 × 15 cm) and was observed during the next 30 min for the occurrence of clonic seizures. Clonic seizures were defined as clonus of the whole body lasting more than 3 s, with an accompanying loss of righting reflex. Latency time to first clonus and the number of seizure episodes were noted and compared between vehicle-treated and drug-treated groups.

[2] = tested on: pilocarpine-induced status epilepticus; assay: Pilocarpine-induced seizures; assay type: in vivo, mouse; conditions: mice, 100 mg/kg ip, pilocarpine 400 mg/kg ip; post-hoc vs vehicle
Experimental: For in vivo tests that assessed anticonvulsant properties of the test compounds 3a–3j adult male Albino Swiss (CD-1) mice weighing between 18 and 22 g were used. The animals were housed in groups of ten mice per cage at room temperature of 22 ± 2 °C, under light/dark (12:12) cycle. The animals had free access to food and tap water before the experiments. The ambient temperature of the experimental room and humidity (50 ± 10%) were kept consistent throughout all the tests. For behavioral experiments the animals were selected randomly. Each experimental group consisted of 4–8 animals/dose. The experiments were performed between 9 AM and 2 PM. Immediately after the in vivo assay the animals were euthanized by cervical dislocation. All procedures were approved by the Local Ethics Committee of the Jagiellonian University in Krakow (34/2018, 1.02.2018)) and the treatment of animals was in full accordance with ethical standards laid down in respective Polish and EU regulations (Directive No. 86/609/EEC). For in vivo tests the compounds 3a–3j were prepared in 1% Tween 80 solution (POCH, Poland) and they were administered by the intraperitoneal route. Control mice received 1% Tween 80. Pentylenetetrazole (PTZ), pilocarpine hydrochloride and scopolamine butylbromide were provided by Sigma Aldrich (Poland). For the tests they were prepared in 0.9% saline (Polfa Kutno, Poland). PTZ and pilocarpine were administered 60 min after the test compound or vehicle. To assess anticonvulsant properties of the test compounds anticonvulsant screening was conducted. Four assays were used: PTZ, maximal electroshock seizure (MES), 6-Hz and pilocarpine tests. In these assays the dose of 100 mg/kg was chosen as a starting dose. If it turned out to be effective, a lower dose (30 mg/kg) was also tested. In this test the mice were pretreated with the investigated compound or vehicle and 60 min later they received pilocarpine (400 mg/kg, ip). To avoid cholinergic side-effects: peripheral toxicity and diarrhea, masticatory and stereotyped movements, animals treated with pilocarpine also received scopolamine butylbromide (1 mg/kg, ip) which was injected 45 min before pilocarpine. After the administration of the convulsant, the mice were observed during the next 60 min for behavioral changes. Latency time to the onset of status epilepticus was considered as the endpoint in this test (Wilhelm et al. [2010]).

motor coordination = assay: Rotarod test; assay type: in vivo, mouse; conditions: mice, 100 mg/kg, 60 min pretreatment; 6, 18 and 24 rpm
Experimental: For in vivo tests that assessed anticonvulsant properties of the test compounds 3a–3j adult male Albino Swiss (CD-1) mice weighing between 18 and 22 g were used. The animals were housed in groups of ten mice per cage at room temperature of 22 ± 2 °C, under light/dark (12:12) cycle. The animals had free access to food and tap water before the experiments. The ambient temperature of the experimental room and humidity (50 ± 10%) were kept consistent throughout all the tests. For behavioral experiments the animals were selected randomly. Each experimental group consisted of 4–8 animals/dose. The experiments were performed between 9 AM and 2 PM. Immediately after the in vivo assay the animals were euthanized by cervical dislocation. All procedures were approved by the Local Ethics Committee of the Jagiellonian University in Krakow (34/2018, 1.02.2018)) and the treatment of animals was in full accordance with ethical standards laid down in respective Polish and EU regulations (Directive No. 86/609/EEC). For in vivo tests the compounds 3a–3j were prepared in 1% Tween 80 solution (POCH, Poland) and they were administered by the intraperitoneal route. Control mice received 1% Tween 80. Pentylenetetrazole (PTZ), pilocarpine hydrochloride and scopolamine butylbromide were provided by Sigma Aldrich (Poland). For the tests they were prepared in 0.9% saline (Polfa Kutno, Poland). PTZ and pilocarpine were administered 60 min after the test compound or vehicle. To assess anticonvulsant properties of the test compounds anticonvulsant screening was conducted. Four assays were used: PTZ, maximal electroshock seizure (MES), 6-Hz and pilocarpine tests. In these assays the dose of 100 mg/kg was chosen as a starting dose. If it turned out to be effective, a lower dose (30 mg/kg) was also tested. The test was performed according to the method recently described (Sałat et al. [2005]). The mice were trained daily for 3 consecutive days on the rotarod apparatus (Rotarod apparatus, May Commat RR0711, Turkey; rod diameter: 2 cm) rotating at a constant speed of 18 rotations per minute (rpm). During each training session, the animals were placed on a rotating rod for 3 min with an unlimited number of trials. The proper experimentation was conducted 24 h after the final training trial. […] Motor impairments, defined as the inability to remain on the rotating rod for 1 min were measured and mean time spent on the rod was counted in each experimental group.

Structure (SMILES)	melting point [°C]	anticonvulsant activity in PTZ model [1]	latency time to pilocarpine-induced status epilepticus [2]	motor coordination (time spent on rotarod) (motor coordination)	latency time to first clonus [1]	number of seizure episodes [1]
COc1ccc(-c2csc(N/N=C/C3CC3)n2)cc1 [Compound 3f, (E)-2-(2-(Cyclopropylmethylene)hydrazinyl)-4-(4-methoxyphenyl)thiazole]	149 to 152	–	did not show statistically significant anticonvulsant effects	None of these compounds impaired motor skills	significantly prolonged	reduced
Brc1ccc(-c2csc(N/N=C/C3CC3)n2)cc1 [Compound 3b, (E)-4-(4-Bromophenyl)-2-(2-(cyclopropylmethylene)hydrazinyl)thiazole]	165 to 167	–	–	–	–	–

Now from value to compound, other results behind:

melting point [°C]	Structure (SMILES)	anticonvulsant activity in PTZ model [1]	latency time to pilocarpine-induced status epilepticus [2]	motor coordination (time spent on rotarod) (motor coordination)	latency time to first clonus [1]	number of seizure episodes [1]
162 to 163	Clc1ccc(-c2csc(N/N=C/C3CC3)n2)cc1 [Compound 3c, (E)-4-(4-Chlorophenyl)-2-(2-(cyclopropylmethylene)hydrazinyl)thiazole]	not effective	did not show statistically significant anticonvulsant effects	None of these compounds impaired motor skills	–	–
132 to 134	FC(F)(F)c1ccc(-c2csc(N/N=C/C3CC3)n2)cc1 [Compound 3e, (E)-2-(2-(Cyclopropylmethylene)hydrazinyl)-4-(4-(trifluoromethyl)phenyl)thiazole]	not effective	did not show statistically significant anticonvulsant effects	None of these compounds impaired motor skills	–	–
124 to 126	[N-]=[N+]=Nc1ccc(-c2csc(N/N=C/C3CC3)n2)cc1 [Compound 3i, (E)-4-(4-Azidophenyl)-2-(2-(cyclopropylmethylene)hydrazinyl)thiazole]	–	did not show statistically significant anticonvulsant effects	None of these compounds impaired motor skills	significantly prolonged	reduced
